The text below walks through data of US20080076824A1, “Compounds That Inhibit Replication Of Human Immunodeficiency Virus” (priority 2004, published 2008).

Molecules are shown by their SMILES. Counter-ions that a name gives are not always drawn. Like-named read-outs stand apart in the source and are kept apart here. Residues, ends and D or L forms follow the SMILES beside them.

The subject of one data set is HIV-1 (IIIB). Nature of the data set: microbe, parasite or virus in culture. The following applies: Human immunodeficiency virus 1, IIIB, CCRF-CEM.
A short description of data set [1]: Cytotoxicity (CC50) in MT-4 cells. The data set is classed as cell-based. The following applies: human, MT-4 cells.
The next data set relates to HIV (SF2 virus). Description: HIV infectivity assay, SF2-infected H9 cells, visible syncytia. The data set is classed as cell-based. The conditions noted are these: for Visible syncytia: H9/SF2, day 11.
Data set [2] relates to Herpes simplex virus-2 (G). The conditions noted are these: read-out: Minimum inhibitory concentration Herpes simplex virus-2 (G); HEL; reduces virus-induced cytopathogenicity by 50%. For orientation: Cytopathic effects are the visible damage that an infection or toxin causes in cultured cells.
Data set [3] in a line: Conversion of G-NH2 to modified G-NH2 by pig plasma (cation exchange HPLC). The conditions noted are these: 37° C. In kind it is in vitro ADME. How it is done:
(§1) Various concentrations of G-NH2 were mixed with either 90% pig plasma or 90% dialyzed pig plasma in PBS and the reactions were conducted at 37° C. for 24 hours. Subsequently, aliquots of the mixtures were separated by cation exchange HPLC, as described previously, and the conversion of G-NH2 to modified G-NH2 was evaluated. […] Saturation of the enzyme activity of cofactor(s) in pig plasma (90% in PBS) occurred between 1,000 μM and 10,000 μM G-NH2.

Data set [4] can be described thus: Conversion of G-NH2 to modified G-NH2 by dialyzed pig plasma (cation exchange HPLC). The data set is classed as in vitro ADME. The following applies: for conversion to modified G-NH2 (24 hr) (percent conversion) Dialysed Pig plasma: 37° C.; for Percent conversion / μM formation: 6 hr. The protocol: In still another set of experiments, a first step isolation of the cofactor present in pig plasma was performed and the enzymatic activity of the isolated product was compared to the enzymatic activity of the crude product. An aliquot of pig plasma was placed in dialysis tubing (MW cut off 10,000) and the serum was subjected to dialysis. Subsequently, the pig plasma dialysate was evaluated for the ability to convert G-NH2 to modified G-NH2.
as §1
In still another set of experiments, the saturation point of the isolated cofactor found in pig plasma was more closely scrutinized. Dialyzed pig plasma (90% in PBS) was mixed with concentrations of G-NH2 between […] and 10,000 μM. Subsequently, the mixtures were incubated at 37° C. for 6 hours and aliquots were separated by cation exchange HPLC, as before. The results shown in TABLE 8 confirmed that the saturation point of the cofactor(s) in pig plasma was near 2,000 μM G-NH2.

For the next data set, the system named is C8166 cells. Description: Cytotoxicity (CC50) in C8166 cells. In kind it is cell-based.
In data set [5] the test system is Herpes simplex virus-1 TK^− KOS ACV^r. The conditions noted are these: read-out: Minimum inhibitory concentration Herpes simplex virus-1 TK^− KOS ACV^r; HEL; reduces virus-induced cytopathogenicity by 50%.
Data set [6] relates to Herpes simplex virus-1 (KOS). The conditions noted are these: read-out: Minimum inhibitory concentration Herpes simplex virus-1 (KOS); HEL; reduces virus-induced cytopathogenicity by 50%.
In a further data set the test system is Parainfluenza-3 virus. The conditions noted are these: read-out: Minimum inhibitory concentration Parainfluenza-3 virus; Vero; reduces virus-induced cytopathogenicity by 50%.
The nature of data set [7]: Conversion of [14C]G-NH2 by Phaseolus vulgaris root nodule extract. In kind it is biochemical. The following applies: overnight, 37° C. How it is done: An extract from Phaseolus vulgaris root nodule was prepared as follows: approximately 20 g of root nodules of 3-4 week old kidney beans (Phaseolus vulgaris) were removed, washed with potassium phosphate buffer 50 mM pH 8.0 and homogenized with 30 ml buffer. Then, the homogenate was sonicated (3×20 sec) on ice, and centrifuged for 15 min, 4° C. at 3,000 rpm. The supernatant was then centrifuged at 15,000 rpm during 20 min at 4° C., aliquoted and stored at −80° C. before use. To the reaction mixture (50 mM potassium phosphate buffer pH 8.0) was added: 0.1 μCi [^14C]G-NH2 and 50 μl extract supernatant (100%, 50% and 20%) and 50 μl buffer. The reaction proceeded overnight (˜18 hrs) at 37° C. Then, methanol was added (200 μl) to stop the reaction and the reaction mixture was subjected to cation exchange column chromatography, as described above. A reaction mixture containing bovine serum was also evaluated as a control.

Another data set has as its system HIV-1. The conditions noted are these: for anti-HIV activity in the presence of IlePyr: 200 and 500 μM IlePyr, in words.
For data set [8], the system named is Vesicular stomatitis virus. The conditions noted are these: read-out: Minimum inhibitory concentration Vesicular stomatitis virus; HeLa; reduces virus-induced cytopathogenicity by 50%.
A further data set concerns MT-4 cells. Description: Cytotoxicity (CC50) in MT-4 cells. In kind it is cell-based.
For the next data set, the system named is HIV-1 (NL4.3). The conditions noted are these: read-out: EC50 HIV-1 NL3.4; CEM cell cultures, syncytia formation. How it is done:
(§2) Human T-lymphocytic CEM cells (4.5×10^5 cells per ml) were suspended in fresh cell culture medium and infected with HIV-1 (IIIB and NL4.3) or HIV-2 (ROD or EHO) at 100 CCID50 (1 CCID50 being the virus dose infective for 50% of the cell cultures) per ml of cell suspension. Then, 100 μl of the infected cell suspension were transferred to microplate wells, mixed with 100 μl of appropriate (freshly prepared) dilutions of the test compounds (i.e., at final concentrations of […]), and were further incubated at 37° C. After 4 to 5 days, giant cell formation was recorded microscopically in the CEM cell cultures.

The subject of another data set is HIV-2 (EHO). The conditions noted are these: read-out: EC50 HIV-2 EHO; CEM cell cultures, syncytia formation. How it is done: as §2
In another data set the test system is Punta Toro virus. The conditions noted are these: read-out: Minimum inhibitory concentration Punta Toro virus; Vero; reduces virus-induced cytopathogenicity by 50%.
Setting [9] is: 2,000 μM G-NH2, dialyzed pig plasma 90% in PBS.
Where [10] appears, read: 4,000 μM G-NH2, dialyzed pig plasma 90% in PBS.
[11] abbreviates: 6,000 μM G-NH2, dialyzed pig plasma 90% in PBS.
The mark [12] stands for this setting: 8,000 μM G-NH2, dialyzed pig plasma 90% in PBS.
Setting [13] is: 10,000 μM G-NH2, dialyzed pig plasma 90% in PBS.

A word on the CC50: it is the concentration that lowers cell viability or growth by half. Read a high CC50 as lower toxicity to the cells. `NC(=O)C(N)O` (stereo not drawn) [AlphaHGA, α-Hydroxy-glycinamide hydrochloride]: the values for the EC50 in the data set with HIV-1 (IIIB) (read-out: EC50 (CEM) HIV-1 (IIIB)) and in the data set on HIV-1 (IIIB) (read-out: EC50 (CEM) HIV-1(IIIB)) were 40 ± 8.2 µM and 43 ± 5.8 µM, respectively. Further, it took 372 ± 107 µM to reach half-maximal cytotoxicity in data set [1] (CC50).
As for `NCC(N)=O` [G-NH2, glycinamide], the figures for the Visible syncytia entry with HIV (SF2 virus) (100 μM in boiled RPMI++) and in the data set with HIV (SF2 virus) (100 μM in normal RPMI++ (10% FCS)) were “positive” and “negative”, respectively. Further, the “inhibition of replication and/or propagation of HIV by visual inspection” value in the data set on HIV (SF2 virus) (boiled fetal calf serum) is on record as “did not”. In addition, the EC50 is above 2000 µM in data set [2]; above 2000 µM in [5]; above 2000 µM in data set [6]; above 2000 µM with Parainfluenza-3 virus; 35 to 43 µM in the data set with HIV-1 (CEM cell cultures, presence of 200 and 500 μM of IlePyr); above 2000 µM in data set [8]. Besides, the figures for the EC50 in the data set on HIV-1 (NL4.3), with HIV-2 (EHO) and in the data set with Punta Toro virus were 45 ± 7.1 µM, 37 ± 5.8 µM and above 2000 µM, respectively. The “conversion to modified G-NH2 (24 hr) (percent conversion) Pig plasma” value in data set [3] (18 μM G-NH2, plasma 90% in PBS) is on record as 99.7%; in data set [3] (100 μM G-NH2, plasma 90% in PBS) it was 99.7%; in data set [3] (1,000 μM G-NH2, plasma 90% in PBS), 98.7%; in [3] (10,000 μM G-NH2, plasma 90% in PBS), “˜24.5%”. The “conversion to modified G-NH2 (24 hr) (percent conversion) Dialysed Pig plasma” value in data set [4] (18 μM G-NH2, 90% in PBS) amounted to 99.8%; in [4] (100 μM G-NH2, 90% in PBS), 99.8%; in data set [4] (1,000 μM G-NH2, 90% in PBS), 99.8%; in data set [4] (10,000 μM G-NH2, 90% in PBS) it was 24.7%. Also, the Percent conversion is 82.6% in data set [4] (setting [9]); 42.1% in data set [4] (setting [10]); 24.9% in data set [4] (setting [11]); 21.0% in [4] (setting [12]); 17.0% in [4] (setting [13]). In addition, the μM formation in data set [4] (setting [9]) is 1,652 μM; in [4] (setting [10]), 1,684 μM; in data set [4] (setting [11]) it was 1,494 μM; in [4] (setting [12]), 1,680 μM; in data set [4] (setting [13]) it was 1,700 μM. Moreover, the CC50 in the data set with C8166 cells and in the data set on MT-4 cells was above 2000 µM in each case. Moreover, in data set [7], the “conversion of glycinamide to modified glycinamide” value is on record as “efficiently converts glycinamide to modified glycinamide”. Besides, in the data set on HIV-1, the “anti-HIV activity in the presence of IlePyr” value is listed as “fully preserved its anti-HIV activity”.
`NCC(=O)N1CCC[C@H]1C(=O)NCC(N)=O` [GPG-NH2, glycylprolylglycinamide] (H-Gly-Pro-Gly-NH2): the EC50 in data set [2] is above 400 µM; in data set [5] it was above 400 µM; in data set [6] it was above 400 µM; in the data set with Parainfluenza-3 virus, above 400 µM; in data set [8], above 400 µM; in the data set with HIV-1 (NL4.3), 50 µM. Also, the EC50 in the data set with HIV-2 (EHO) is 42 ± 14 µM; in the data set with Punta Toro virus, above 400 µM. Further, the “anti-HIV activity in the presence of IlePyr” value in the data set with HIV-1 is recorded as “markedly lost its inhibitory activity”.
